Data reported in patent publication US20190060463A1, “BRIDGED POLYETHYLENE GLYCOL-ALIPHATIC POLYESTER BLOCK COPOLYMER, PREPARATION METHOD FOR SAME, INTERMEDIATE OF SAME, AND USES THEREOF” (University Of Science And Technology Of China, priority 2015, published 2019).

Test system: MDA-MB-231 in situ breast cancer mouse tumor model
Test: Inhibition of breast cancer growth by nanoparticles carrying docetaxel
Assay type: in vivo, nude mouse
Details: 70 μg DTXL (3.5 mg/kg), 3 administrations, period 7 days
Experimental: In this Example, a MDA-MB-231 in situ breast cancer mouse tumor model was used. The specific process of establishing the model was as follows. MDA-MB-231 cells were cultured in a DMEM complete medium. The cells were cultured with a serum-free DMEM 6 hours before the model was established, and digested with trypsin. The cells were collected by centrifugation at 1000 rpm, and resuspended with PBS to allow the density of the cells to be up to 2×10^7cells/mL. 100 μL of the cell suspension was injected to the second right breast of a nude mouse. In this Example, mPEG113-b-PDLLA72, mPEG113-Dlinkm-PDLLA70, and mPEG113-Dlink-PDLLA75 were used to produce drug loaded nanoparticles.
Nude mice, which were injected with breast cancer cells in situ, were bred in a SPF-level animal room for about 7 days, and visible tumors may be formed. The volume of the tumor was calculated according to the equation: V=0.5*a*b*b, wherein a refers to a longer diameter of the tumor and b refers to a shorter diameter of the tumor. When the tumor volume of the nude mouse reaches about 60 mm^3, treatment was performed. 20 g nude mice inoculated with MDA-MB-231 tumor were divided into 5 groups according to the following manners of treatment, and each group has 5 nude mice. […] A treatment period was 7 days and 3 administrations were performed. The tumor volume was measured every 3 days. […]

## CC(=O)O[C@@]12CO[C@@H]1C[C@H](O)[C@@]1(C)C(=O)[C@H](O)C3=C(C)[C@@H](OC(=O)[C@H](O)[C@@H](NC(=O)OC(C)(C)C)c4ccccc4)C[C@@](O)([C@@H](OC(=O)c4ccccc4)[C@H]21)C3(C)C [DTXL, docetaxel]
  inhibitory effect on tumor growth: no inhibitory effect
